Like-named read-outs stand apart in the source and are kept apart here.
What was measured:
UGT1A1 = biological target: T1, UGT1A1 (Homo sapiens, UniProt P22309); experiment: Inhibition of expressed UGT1A1 (probe β-estradiol); assay type: in vitro ADME
T1 sequence (P22309 26-533): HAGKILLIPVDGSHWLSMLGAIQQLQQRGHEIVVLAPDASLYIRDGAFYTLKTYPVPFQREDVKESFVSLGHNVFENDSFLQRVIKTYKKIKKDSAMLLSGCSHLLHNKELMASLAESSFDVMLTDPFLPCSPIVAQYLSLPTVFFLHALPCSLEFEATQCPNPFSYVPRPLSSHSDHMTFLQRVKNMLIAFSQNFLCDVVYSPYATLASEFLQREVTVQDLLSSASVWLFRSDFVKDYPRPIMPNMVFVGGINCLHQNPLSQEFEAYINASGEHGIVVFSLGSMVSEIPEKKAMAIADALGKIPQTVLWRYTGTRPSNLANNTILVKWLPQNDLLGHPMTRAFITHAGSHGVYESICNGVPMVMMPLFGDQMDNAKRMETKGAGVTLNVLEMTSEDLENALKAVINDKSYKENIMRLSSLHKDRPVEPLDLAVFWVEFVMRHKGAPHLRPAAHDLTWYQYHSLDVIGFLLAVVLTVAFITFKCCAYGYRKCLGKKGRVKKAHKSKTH
Procedure: After centrifugation (13,800g, 10 min), the supernatant (8 μL) was obtained for determination by UHPLC system.
Similarly, β-estradiol (60 μM), propofol (40 μM) and 4-MU (350 μM) were typically used as the substrates for UGT1A1, 1A9 and 2B7, respectively. After optimization of incubation conditions (Additional file 1: Fig. S2), the protein concentrations for UGT1A1, 1A9, and 2B7 were 0.125, 0.05, and 0.05 mg/mL, respectively.

CYP2B6 = biological target: T2, CYP2B6 (Homo sapiens, UniProt P20813); experiment: Inhibition of recombinant CYP2B6 (probe bupropion); assay type: in vitro ADME
T2 sequence (P20813 1-491): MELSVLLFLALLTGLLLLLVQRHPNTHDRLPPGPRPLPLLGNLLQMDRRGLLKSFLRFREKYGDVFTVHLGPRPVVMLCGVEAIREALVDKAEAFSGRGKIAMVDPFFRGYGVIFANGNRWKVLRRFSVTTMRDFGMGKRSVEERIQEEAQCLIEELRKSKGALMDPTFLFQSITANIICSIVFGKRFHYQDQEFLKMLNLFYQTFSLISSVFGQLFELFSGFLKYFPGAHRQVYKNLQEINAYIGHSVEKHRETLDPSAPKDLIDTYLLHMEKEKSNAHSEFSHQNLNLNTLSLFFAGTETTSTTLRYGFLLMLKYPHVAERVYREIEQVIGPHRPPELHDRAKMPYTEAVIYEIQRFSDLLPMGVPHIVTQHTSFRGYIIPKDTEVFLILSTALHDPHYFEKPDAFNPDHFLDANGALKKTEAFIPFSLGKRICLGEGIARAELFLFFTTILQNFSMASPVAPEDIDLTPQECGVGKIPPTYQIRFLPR
Procedure: (§1) In this study, phenacetin (100 μM), coumarin (100 μM), bupropion (100 μM), paclitaxel (60 μM), tolbutamide (200 μM), mephenytoin (100 μM), chlorzoxazone (200 μM) and nifedipine (40 μM) have been used as the probe substrates for CYP1A2, 2A6, 2B6, 2C8, 2C9, 2C19, 2E1 and 3A4, respectively.

CYP2E1 = CYP2E1 (Homo sapiens, UniProt P05181); experiment: Inhibition of recombinant CYP2E1 (probe chlorzoxazone)
CYP2E1, sequence (P05181 whole entry): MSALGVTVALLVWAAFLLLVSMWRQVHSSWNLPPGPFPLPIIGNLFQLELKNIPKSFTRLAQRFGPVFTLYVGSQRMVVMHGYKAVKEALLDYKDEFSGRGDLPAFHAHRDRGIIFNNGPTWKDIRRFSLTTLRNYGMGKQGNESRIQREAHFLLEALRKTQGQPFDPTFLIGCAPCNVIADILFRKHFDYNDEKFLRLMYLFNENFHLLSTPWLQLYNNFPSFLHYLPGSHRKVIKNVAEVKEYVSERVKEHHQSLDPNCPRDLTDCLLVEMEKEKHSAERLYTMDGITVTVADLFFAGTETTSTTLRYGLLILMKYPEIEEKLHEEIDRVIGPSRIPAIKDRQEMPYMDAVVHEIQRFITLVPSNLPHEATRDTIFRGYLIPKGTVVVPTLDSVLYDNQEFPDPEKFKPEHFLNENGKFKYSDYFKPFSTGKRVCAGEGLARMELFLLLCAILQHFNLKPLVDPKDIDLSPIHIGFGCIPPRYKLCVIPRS
Procedure: Phase I incubation system (100 μL) contained Tris–HCl buffer (50 mM, pH = 7.4), MgCl2 (5 mM), each CYP isozyme, specific substrates, circulating compounds and NADPH (1 mM) as prescribed previously. After incubation (37 °C, 60 min), the reaction was terminated by ice-cold acetonitrile (100 μL), following by centrifugation at 13,800g for 10 min. The supernatant (8 μL) was acquired for ultra-high-performance liquid chromatography (UHPLC) system (Waters, Manchester, UK) analysis.
After optimization of incubation conditions (Additional file 1: Fig. S1), the substrates were incubated with each CYP isozyme at different protein concentrations (0.05 mg/mL for CYP1A2 and 3A4; 0.1 mg/mL for CYP2A6, 2B6, 2C8, 2C9, 2C19 and 2E1) in the absence (control) and presence of different mixture or herbal compounds (Kang-Ai injection and samples that Kang-Ai injection was diluted 10 times; 1, 10, and 100 μM for matrine and oxymatrine; 0.1, 1, 10 and 100 μM for astragalosides and ginsenosides).
The half-inhibition concentration (IC50) values were determined by non-linear regression analysis. […] The inhibition mechanism towards corresponding CYP and UGT isoforms were further explored.
The inhibition constant (Ki) values were obtained by multiple concentrations of substrates in the absence or presence of multiple concentrations of herbal compounds as described previously. […] (1)–(3), respectively. The model with the smallest Akaike information criterion (AIC) and Schwartz information criterion (SC) values was considered as the best model, following the obtained appropriate Ki values. Model fitting and parameter estimation were performed using Graphpad Prism V5 software (SanDiego, CA).

[1] = Protein binding assay (equilibrium dialysis); assay type: in vitro ADME, rat; settings: rat plasma; for fraction unbound at 24 h: read-out: fu-plasma (unbound fraction)
Procedure, shortened: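 Rat plasma binding was measured by equilibrium dialysis (12–14 kDa cutoff membrane), equilibrated 24 h at 37 °C and 55 rpm. Alkaloids were tested at 2 μmol/L and saponins at 4 μmol/L. Unbound fraction = dialysate concentration/post-dialysis plasma concentration × 100%.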

CYP2C9 = CYP2C9 (Homo sapiens, UniProt P11712); experiment: Inhibition of recombinant CYP2C9 (probe tolbutamide); assay type: in vitro ADME; settings: for inhibition type (smallest AIC and SC) / Ki / α / Cmax/Ki ([I]/Ki): CYP2C9; for Cmax/Ki ([I]/Ki): selected model, rat plasma Cmax
CYP2C9, sequence (P11712 whole entry): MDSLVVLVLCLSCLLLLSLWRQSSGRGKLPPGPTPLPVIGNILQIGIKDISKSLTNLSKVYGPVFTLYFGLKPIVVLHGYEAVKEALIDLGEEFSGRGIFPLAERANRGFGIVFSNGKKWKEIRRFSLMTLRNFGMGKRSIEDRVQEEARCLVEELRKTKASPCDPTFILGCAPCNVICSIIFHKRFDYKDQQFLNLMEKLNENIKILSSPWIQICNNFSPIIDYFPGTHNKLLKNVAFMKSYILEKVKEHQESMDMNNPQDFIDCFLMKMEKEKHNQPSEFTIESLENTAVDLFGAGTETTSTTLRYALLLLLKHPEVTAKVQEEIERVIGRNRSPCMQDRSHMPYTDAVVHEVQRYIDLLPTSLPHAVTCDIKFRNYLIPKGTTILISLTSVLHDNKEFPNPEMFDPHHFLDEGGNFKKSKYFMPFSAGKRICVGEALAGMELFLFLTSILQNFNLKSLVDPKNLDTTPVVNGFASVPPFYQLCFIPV
Procedure: as §1

CYP2C19 = CYP2C19 (Homo sapiens, UniProt P33261); experiment: Inhibition of recombinant CYP2C19 (probe mephenytoin); assay type: in vitro ADME
CYP2C19, sequence (P33261 whole entry): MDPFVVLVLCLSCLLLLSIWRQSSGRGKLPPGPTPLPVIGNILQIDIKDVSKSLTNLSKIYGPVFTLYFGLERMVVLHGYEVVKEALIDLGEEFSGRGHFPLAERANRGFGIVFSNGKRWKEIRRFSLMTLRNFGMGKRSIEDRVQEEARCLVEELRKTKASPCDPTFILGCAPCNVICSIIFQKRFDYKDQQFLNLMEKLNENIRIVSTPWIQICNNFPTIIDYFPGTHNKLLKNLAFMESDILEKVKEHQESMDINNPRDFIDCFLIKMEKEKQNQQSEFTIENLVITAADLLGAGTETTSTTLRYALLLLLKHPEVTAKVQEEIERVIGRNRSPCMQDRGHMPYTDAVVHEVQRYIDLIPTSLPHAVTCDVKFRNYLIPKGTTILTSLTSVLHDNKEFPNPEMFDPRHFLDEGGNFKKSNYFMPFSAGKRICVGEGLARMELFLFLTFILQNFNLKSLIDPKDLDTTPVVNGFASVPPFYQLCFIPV
Procedure: as §1

[2] = recombinant isozyme, mean ± SD of triplicate, unit not given (IC50 classes in μM), read-out: IC50 towards UGT1A1
[3] = recombinant isozyme, mean ± SD of triplicate, unit not given (IC50 classes in μM), read-out: IC50 towards CYP2B6
[4] = equilibrium dialysis 24 h, 37 °C, 2 μmol/L alkaloids, 4 μmol/L saponins
[5] = tolbutamide 200 μM, read-out: IC50 towards CYP2C9
[6] = recombinant isozyme, mean ± SD of triplicate, unit not given (IC50 classes in μM), read-out: IC50 towards CYP2C19
[7] = recombinant isozyme, mean ± SD of triplicate, unit not given (IC50 classes in μM), read-out: IC50 towards CYP2C9

SMILES | IC50 (UGT1A1; [2]) | IC50 (CYP2B6; [3]) | IC50 (CYP2C19; [6]) | IC50 (CYP2E1) | fraction unbound at 24 h [1, 4] | IC50 (CYP2C9; [7]) | inhibition type (smallest AIC and SC) (CYP2C9) | Ki (CYP2C9; competitive model) | Ki (CYP2C9; mixed-type model) | α (CYP2C9; mixed-type model) | Ki (CYP2C9; noncompetitive model) | Cmax/Ki ([I]/Ki) (CYP2C9) | IC50 (CYP2C9; [5]) | also measured
CC(C)(O)[C@@H]1CC[C@](C)([C@H]2[C@@H](O)C[C@@]3(C)[C@@H]4C[C@H](O[C@@H]5O[C@H](CO)[C@@H](O)[C@H](O)[C@H]5O)[C@H]5C(C)(C)[C@@H](O[C@@H]6OC[C@@H](O)[C@H](O)[C@H]6O)CC[C@@]56C[C@@]46CC[C@]23C)O1 [Compound B2, Astragaloside IV] | > 100 µM | > 100 µM | > 100 µM |  |  |  | Noncompetitive inhibition | 17.4 ± 3.7 µM | 45 ± 16.6 µM | 1.5 ± 1.0 | 55.8 ± 5.3 µM | 0.04 | 65 µM | IC50 (CYP2E1; read-out: IC50 towards CYP2E1, recombinant isozyme, mean ± SD of triplicate, unit not given (IC50 classes in μM)): > 100 µM; bound in rat plasma ([1]; equilibrium dialysis): ~90%; fu-plasma (unbound fraction) [1, 4]: 12.35 ± 1.02%
O=C1CCC[C@@H]2[C@H]3CCCN4CCC[C@@H](CN12)[C@@H]34 [Compound A1, Matrine] |  |  |  | > 100 µM | 0.927 ± 0.0681 |  |  |  |  |  |  |  |  | IC50 (UGT1A1): > 100 µM; IC50 (CYP2B6): > 100 µM; IC50 (CYP2C9): > 100 µM; IC50 (CYP2C19): > 100 µM
CC(C)=CCC[C@](C)(O[C@@H]1O[C@H](CO[C@@H]2O[C@@H](CO)[C@H](O)[C@H]2O)[C@@H](O)[C@H](O)[C@H]1O)[C@H]1CC[C@]2(C)[C@@H]1[C@H](O)C[C@@H]1[C@@]3(C)CC[C@H](O[C@@H]4O[C@H](CO)[C@@H](O)[C@H](O)[C@H]4O[C@@H]4O[C@H](CO)[C@@H](O)[C@H](O)[C@H]4O)C(C)(C)[C@@H]3CC[C@]12C [Compound D3, Ginsenoside Rc] | > 100 µM | > 100 µM | > 100 µM | > 100 µM | 0.0112 ± 0.0012 |  |  |  |  |  |  |  |  | IC50 towards CYP2C9 (CYP2C9; recombinant isozyme, mean ± SD of triplicate, unit not given (IC50 classes in μM)): Activation
CC(C)=CCC[C@](C)(O[C@@H]1O[C@H](CO)[C@@H](O)[C@H](O)[C@H]1O)[C@H]1CC[C@]2(C)[C@@H]1[C@H](O)C[C@@H]1[C@@]3(C)CC[C@H](O)C(C)(C)[C@@H]3[C@@H](O[C@@H]3O[C@H](CO)[C@@H](O)[C@H](O)[C@H]3O[C@@H]3O[C@@H](C)[C@H](O)[C@@H](O)[C@H]3O)C[C@]12C [Compound C9, Ginsenoside Re] | > 100 µM | > 100 µM | > 100 µM | > 100 µM | 0.874 ± 0.0659 | > 100 µM |  |  |  |  |  |  |  | 

Further lines, with some results ahead:

IC50 (UGT1A1; [2]) | IC50 (CYP2B6; [3]) | IC50 (CYP2C19; [6]) | IC50 (CYP2E1) | fraction unbound at 24 h [1, 4] | IC50 (CYP2C9; [7]) | SMILES | inhibition type (smallest AIC and SC) (CYP2C9) | Ki (CYP2C9; competitive model) | Ki (CYP2C9; mixed-type model) | α (CYP2C9; mixed-type model) | Ki (CYP2C9; noncompetitive model) | Cmax/Ki ([I]/Ki) (CYP2C9) | IC50 (CYP2C9; [5]) | also measured
> 100 µM | > 100 µM | > 100 µM | > 100 µM | 0.0096 ± 0.0009 | 8.8 ± 3.2 µM | CC(C)=CCC[C@](C)(O[C@@H]1O[C@H](CO[C@@H]2O[C@H](CO)[C@@H](O)[C@H](O)[C@H]2O)[C@@H](O)[C@H](O)[C@H]1O)[C@H]1CC[C@]2(C)[C@@H]1[C@H](O)C[C@@H]1[C@@]3(C)CC[C@H](O[C@@H]4O[C@H](CO)[C@@H](O)[C@H](O)[C@H]4O[C@@H]4O[C@H](CO)[C@@H](O)[C@H](O)[C@H]4O)C(C)(C)[C@@H]3CC[C@]12C [Compound D5, Ginsenoside Rb1] | Noncompetitive inhibition | 8.2 ± 1 µM | 18.8 ± 4.3 µM | 0.7 ± 0.3 | 16.1 ± 0.9 µM | 0.03 | 8.81 µM | 
> 100 µM | 20.2 ± 12.4 µM | > 100 µM | > 100 µM | 0.0075 ± 0.0008 | > 100 µM | CC(C)=CCC[C@](C)(O[C@@H]1O[C@H](CO)[C@@H](O)[C@H](O)[C@H]1O)[C@H]1CC[C@]2(C)[C@@H]1[C@H](O)C[C@@H]1[C@@]3(C)CC[C@H](O[C@@H]4O[C@H](CO)[C@@H](O)[C@H](O)[C@H]4O[C@@H]4O[C@H](CO)[C@@H](O)[C@H](O)[C@H]4O)C(C)(C)[C@@H]3CC[C@]12C [Compound D2, Ginsenoside Rd] |  |  |  |  |  |  |  | inhibition type (smallest AIC and SC) (CYP2B6; CYP2B6): Noncompetitive inhibition; Ki (CYP2B6; CYP2B6, competitive model): 10.2 ± 2.1 µM; Ki (CYP2B6; CYP2B6, mixed-type model): 36.3 ± 10.2 µM; α (CYP2B6; CYP2B6, mixed-type model): 1.0 ± 0.4; Ki (CYP2B6; CYP2B6, noncompetitive model): 37.2 ± 2.3 µM; Cmax/Ki ([I]/Ki) (CYP2B6; CYP2B6, selected model, rat plasma Cmax): 0.02; IC50 (CYP2B6; bupropion 100 μM, read-out: IC50 against CYP2B6): 20.2 µM

From paper PMC7339578, “Multiple circulating alkaloids and saponins from intravenous Kang-Ai injection inhibit human cytochrome P450 and UDP-glucuronosyltransferase isozymes: potential drug–drug interactions” (Chinese Medicine, 2020)
